This note sets out measurements from patent publication US7053123B2, “Substituted (e)-styryl benzylsulfones for treating proliferative disorders” (Temple University-of the Commonwealth System of Higher …, priority 2000, dated 2006).

pIC50: −log10 of the molar value.

What all share (format): cell-based
Test [1] concerns colorectal carcinoma cell line DLD-1. Briefly: Tumor cell viability assay (Trypan blue exclusion), DLD-1. The settings on record: DLD-1 cell line, tested at 5, 10 and 20 μM, 96 hours, read-out: G150 (the concentration resulting in 50% growth inhibition). The source says: (§1) The effect of the Example 13 compound on the growth of normal fibroblasts and on tumor cells of prostate, colon, lung, brain, pancreas and breast origin was examined utilizing the following cell lines: prostate carcinoma cell line DU-145; colorectal carcinoma cell line DLD-1; non-small cell lung carcinoma cell line H157; pancreatic carcinoma cell line MIA-Pa-Ca-2; glioblastoma cell line U87; and breast adenocarcinoma cell line BT-20. BT-20 is an estrogen-unresponsive cell line. NIH/3T3 and HFL are normal murine and human fibroblasts, respectively. BT-20, DLD-1 and H157 were grown in Dulbecco's modified Eagle's medium (DMEM) containing 10% fetal bovine serum supplemented with penicillin and streptomycin. DU145 was cultured in RPMI with 10% fetal bovine serum containing penicillin and streptomycin. […]
(§2) Cells were treated with the Example 13 compound at concentrations of 100, 250, 500 and 1000 nM. Cell viability was determined after 96 hours by the Trypan blue exclusion method. […] The drug G150 (the concentration resulting in 50% growth inhibition) was calculated as 200 nM for the MIA-Pa-Ca-2 cell line.
(§3) The procedure of Example 40 was followed for the compound of Example 37, on cell lines DLD-1, H157 and BT20, at 5, 10 and 20 μM concentrations. The drug G150 was calculated for each cell line as follows: DLD, 8 μM; H157, 15 μM; and BT20, 15 μM.

In test [2] the test system is non-small cell lung carcinoma cell line H157. Briefly: Tumor cell viability assay (Trypan blue exclusion), H157. The settings on record: tested at 5, 10 and 20 μM, 96 hours, read-out: G150 (the concentration resulting in 50% growth inhibition).
From the text: as §1, §2, §3

The subject of test [3] is breast adenocarcinoma cell line BT-20. Briefly: Tumor cell viability assay (Trypan blue exclusion), BT-20. The settings on record: BT20 cell line, tested at 5, 10 and 20 μM, 96 hours, read-out: G150 (the concentration resulting in 50% growth inhibition).
From the text: as §1, §2, §3

Test [4] concerns pancreatic carcinoma cell line MIA-Pa-Ca-2. Briefly: Tumor cell viability assay (Trypan blue exclusion), MIA-Pa-Ca-2. The conditions noted are these: MIA-Pa-Ca-2 cell line, 96 hours, vs DMSO-treated cells, read-out: G150 (the concentration resulting in 50% growth inhibition).
From the text: (§4) The effect of the Example 13 compound on the growth of normal fibroblasts and on tumor cells of prostate, colon, lung, brain, pancreas and breast origin was examined utilizing the following cell lines: prostate carcinoma cell line DU-145; colorectal carcinoma cell line DLD-1; non-small cell lung carcinoma cell line H157; pancreatic carcinoma cell line MIA-Pa-Ca-2; glioblastoma cell line U87; and breast adenocarcinoma cell line BT-20. BT-20 is an estrogen-unresponsive cell line. NIH/3T3 and HFL are normal murine and human fibroblasts, respectively. BT-20, DLD-1 and H157 were grown in Dulbecco's modified Eagle's medium (DMEM) containing 10% fetal bovine serum supplemented with penicillin and streptomycin. DU145 was cultured in RPMI with 10% fetal bovine serum containing penicillin and streptomycin. NIH3T3 and HFL cells were grown in DMEM containing 10% calf serum supplemented with penicillin and streptomycin. Cells were plated at density levels of 1.0×10^5 cells per well in six-well plates. Cell cultures were maintained at 37° C. in a humidified atmosphere of 5% CO2.
as §2

Test [5] deals with HFL normal human fibroblasts. Briefly: Normal fibroblast viability assay (Trypan blue exclusion), HFL. The settings on record: normal cells HFL; treated at 100-1000 nM; 96 hours.
From the text: as §4, §2

The test system of test [6] is NIH/3T3 normal murine fibroblasts. Briefly: Normal fibroblast viability assay (Trypan blue exclusion), NIH 3T3. The conditions noted are these: normal cells NIH 3T3; treated at 100-1000 nM; 96 hours.
From the text: as §4, §2

In the case of `O=[N+]([O-])c1ccccc1/C=C/S(=O)(=O)Cc1ccc(Cl)cc1Cl` [Example 37, (E)-2-Nitrostyryl-2,4-dichlorobenzylsulfone], the pIC50 was 5.10 in test [1], 4.82 in test [2] and 4.82 in test [3].
Regarding “(E)-2,6-Dimethoxystyryl-4-methoxybenzylsulfone [Example 13]”, the pIC50 in test [4] was 6.70. For the same molecule, in test [5], the cell death result is recorded as “no appreciable cell death” and the growth inhibition amounted to 5%. In test [6], the cell death result is “no appreciable cell death” and the growth inhibition turned out to be 5%.
